Experimental findings from US20250186541A1, “DLL3 TARGETING PEPTIDES AND CONSTRUCTS THEREOF” (MARIANA ONCOLOGY INC., priority 2023, published 2025) are described below.

The structures appear in SMILES notation. Numbered stars: 1 amine (or outer) side, 2 acyl side, 3 side chain; on linkers, the order of the positions; unused ones are H or OH. Bridge positions count the residues as written; N and C are the ends. Square brackets hold non-standard residues; d marks the D form. Side chains are listed from the residue outwards. Peptide text beside a SMILES is read from it. * marks the point of attachment. ξ: configuration not given here. Ala(piperidin-4-yl) = O=C([C@H](CC1CCN([*:3])CC1)N[*:1])[*:2]; DOTA = O=C(O)CN1CCN(CC(=O)O)CCN(CC(=O)*)CCN(CC(=O)O)CC1; 1Nal = N[C@@H](Cc1cccc2ccccc12)C(=O)O; 2Nal = N[C@@H](Cc1ccc2ccccc2c1)C(=O)O; Phe(2-Me) = Cc1ccccc1C[C@H](N)C(=O)O; oXylylene = c1ccc(C[*:2])c(C[*:1])c1; ξγGlu = O=C(O)C(CCC(=O)[*:2])N[*:1]; Gly(cPent) = N[C@H](C(=O)O)C1CCCC1; pXylylene = c1cc(C[*:2])ccc1C[*:1]; Ala(cPr) = N[C@@H](CC1CC1)C(=O)O; tBuAla = CC(C)(C)C[C@H](N)C(=O)O; NMeD = CN[C@@H](CC(=O)O)C(=O)O; Chg = N[C@H](C(=O)O)C1CCCCC1; αMeP = C[C@@]1(C(=O)O)CCCN1; Ahx = NCCCCCC(=O)O Where only a bound is given, the exact number is not on record here.

In this assay the target is T1, human DLL3 (Homo sapiens, UniProt Q9NYJ7).
T1 construct: biotin (biotinylated)
T1 sequence (Q9NYJ7 27-618): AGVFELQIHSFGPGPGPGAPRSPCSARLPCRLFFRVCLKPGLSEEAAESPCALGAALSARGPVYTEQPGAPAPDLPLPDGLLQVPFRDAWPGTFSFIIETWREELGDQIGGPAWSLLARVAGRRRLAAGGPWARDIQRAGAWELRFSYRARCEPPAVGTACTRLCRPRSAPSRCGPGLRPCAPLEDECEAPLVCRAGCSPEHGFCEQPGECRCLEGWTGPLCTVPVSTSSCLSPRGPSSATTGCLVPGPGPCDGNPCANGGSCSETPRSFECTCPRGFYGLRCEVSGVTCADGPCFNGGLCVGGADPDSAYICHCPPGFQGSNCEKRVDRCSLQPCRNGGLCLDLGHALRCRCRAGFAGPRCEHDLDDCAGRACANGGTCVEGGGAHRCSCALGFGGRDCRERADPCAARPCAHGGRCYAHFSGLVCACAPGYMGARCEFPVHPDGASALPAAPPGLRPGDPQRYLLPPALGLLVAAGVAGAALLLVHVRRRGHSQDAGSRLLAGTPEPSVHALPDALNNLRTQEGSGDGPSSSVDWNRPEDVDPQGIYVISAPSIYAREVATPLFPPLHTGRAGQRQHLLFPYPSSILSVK
In words: Affinity determination by Surface Plasmon Resonance (SPR), Biacore, 1:1 binding model. Conditions: biotinylated human DLL3 on streptavidin chip, 25° C.; NB = nonbinding. In outline:
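SPR with biotinylated human DLL3 captured on a streptavidin chip, with a reference surface subtracted. Samples were injected at several concentrations at 100 μL/min in phosphate buffer with 137 mM NaCl, 2.7 mM KCl, 0.05% P20 and 2% DMSO. Kinetic and affinity constants came from a 1:1 binding fit.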
As a reminder, the Kd is the constant that tells how readily two partners part at equilibrium. A higher Kd goes with lower affinity. Molecule `CC(=O)N[C@H](CO)C(=O)N[C@@H](CC(=O)O)C(=O)N[C@H]1CSSC[C@@H](C(=O)N2CCC[C@@]2(C)C(=O)N[C@@H](Cc2ccccc2)C(=O)N[C@@H](CC(=O)O)C(=O)N[C@H](CCCCNC(=O)CN2CCN(CC(=O)O)CCN(CC(=O)O)CCN(CC(=O)O)CC2)C(N)=O)NC(=O)[C@H](CC(N)=O)NC(=O)[C@H](Cc2c[nH]c3ccccc23)NC(=O)[C@H](CCC(N)=O)NC(=O)[C@H](CC2CC2)NC(=O)[C@H](Cc2cccc3ccccc23)NC1=O` [compound 140, Ac-(D-Ser)-D-C(3)-(1Nal)-(cPrA)-Q-W-N-C(3)-(aMe-P)-F-D-D-Lys(DOTA)-CONH2] (Ac-[dS]DC[1Nal][Ala(cPr)]QWNC[αMeP]FD[dK](DOTA)-NH2; disulfide 3-9) showed a dissociation constant (Kd) of 1.5 nM.
Molecule `CC(=O)N[C@H](CO)C(=O)N[C@@H](CC(=O)O)C(=O)N[C@H]1CSSC[C@@H](C(=O)N2CCC[C@@]2(C)C(=O)N[C@@H](Cc2ccccc2)C(=O)N[C@@H](CC(=O)O)C(=O)N[C@H](CCCCNC(=O)CN2CCN(CC(=O)O)CCN(CC(=O)O)CCN(CC(=O)O)CC2)C(N)=O)NC(=O)[C@H](CC(N)=O)NC(=O)[C@H](Cc2c[nH]c3ccccc23)NC(=O)[C@H](CCC(N)=O)NC(=O)[C@H](C2CCCC2)NC(=O)[C@H](Cc2cccc3ccccc23)NC1=O` [compound 141, Ac-(D-Ser)-D-C(3)-(1Nal)-(cPenG)-Q-W-N-C(3)-(aMe-P)-F-D-D-Lys(DOTA)-CONH2] (Ac-[dS]DC[1Nal][Gly(cPent)]QWNC[αMeP]FD[dK](DOTA)-NH2; disulfide 3-9) showed a Kd of 1.18 nM.
Still for that read-out and setting: to `CC(=O)N[C@H](C(=O)N[C@@H](CCCCNC(=O)CN1CCN(CC(=O)O)CCN(CC(=O)O)CCN(CC(=O)O)CC1)C(=O)N[C@@H](CC(=O)O)C(=O)N[C@H]1CSSC[C@@H](C(=O)N2CCC[C@@]2(C)C(=O)N[C@@H](Cc2ccccc2)C(=O)N[C@@H](CC(=O)O)C(N)=O)NC(=O)[C@H](CC(N)=O)NC(=O)[C@H](Cc2c[nH]c3ccccc23)NC(=O)[C@H](CCC(N)=O)NC(=O)[C@H](CC(C)C)NC(=O)[C@H](Cc2cccc3ccccc23)NC1=O)C1CCCCC1` [compound 142, Ac-(Chg)-[L-Lys(DOTA)]-D-C(3)-(1Nal)-L-Q-W-N-C(3)-(aMe-P)-F-D-CONH2] (Ac-[Chg]K(DOTA)DC[1Nal]LQWNC[αMeP]FD-NH2; disulfide 4-10) belongs 20.2 nM.
Consider `CC(=O)N[C@H](C(=O)N[C@@H](CO)C(=O)N[C@@H](CC(=O)O)C(=O)N[C@H]1CSCc2ccccc2CSC[C@@H](C(=O)N2CCC[C@@]2(C)C(=O)N[C@@H](Cc2ccccc2)C(=O)N[C@@H](CC(=O)O)C(=O)N[C@H](CCCCNC(=O)CN2CCN(CC(=O)O)CCN(CC(=O)O)CCN(CC(=O)O)CC2)C(N)=O)NC(=O)[C@H](CC(N)=O)NC(=O)[C@H](Cc2c[nH]c3ccccc23)NC(=O)[C@H](CCC(N)=O)NC(=O)[C@H](CC(C)C)NC(=O)[C@H](Cc2cccc3ccccc23)NC1=O)C1CCCCC1` [compound 143, Ac-(Chg)-S-D-C(oDBX)-(1Nal)-L-Q-W-N-C(2)-(aMe-P)-F-D-D-Lys(DOTA)-CONH2] (Ac-[Chg]SDC[1Nal]LQWNC[αMeP]FD[dK](DOTA)-NH2; linker 4-10 via oXylylene), for which the “SPR KD (nM)” value is given as “slow kon”.
In turn, `CC(=O)N[C@H](C(=O)N[C@@H](CO)C(=O)N[C@@H](CC(=O)O)C(=O)N[C@H]1CSCc2ccc(cc2)CSC[C@@H](C(=O)N2CCC[C@@]2(C)C(=O)N[C@@H](Cc2ccccc2)C(=O)N[C@@H](CC(=O)O)C(=O)N[C@H](CCCCNC(=O)CN2CCN(CC(=O)O)CCN(CC(=O)O)CCN(CC(=O)O)CC2)C(N)=O)NC(=O)[C@H](CC(N)=O)NC(=O)[C@H](Cc2c[nH]c3ccccc23)NC(=O)[C@H](CCC(N)=O)NC(=O)[C@H](CC(C)C)NC(=O)[C@H](Cc2cccc3ccccc23)NC1=O)C1CCCCC1` [compound 145, Ac-(Chg)-S-D-C(pDBX)-(1Nal)-L-Q-W-N-C(2)-(aMe-P)-F-D-D-Lys(DOTA)-CONH2] (Ac-[Chg]SDC[1Nal]LQWNC[αMeP]FD[dK](DOTA)-NH2; linker 4-10 via pXylylene) gave a Kd greater than 30 nM.
Still for that read-out and setting: the value for `CC(=O)N[C@H](C)C(=O)N[C@@H](CO)C(=O)N[C@@H](CC(=O)O)C(=O)N[C@H]1CSSC[C@@H](C(=O)N2CCC[C@@]2(C)C(=O)N[C@@H](Cc2ccccc2)C(=O)N[C@@H](CC(=O)O)C(=O)N[C@H](CCCCNC(=O)CN2CCN(CC(=O)O)CCN(CC(=O)O)CCN(CC(=O)O)CC2)C(N)=O)NC(=O)[C@H](CC(N)=O)NC(=O)[C@H](Cc2ccc3ccccc3c2)NC(=O)[C@H](CC2CCNCC2)NC(=O)[C@H](CC(C)(C)C)NC(=O)[C@H](Cc2cccc3ccccc23)NC1=O` [compound 146, Ac-(D-Ala)-S-D-C(3)-(1Nal)-(t-Bu-Ala)-[3-(4-piperidinyl)-Ala]-(2Nal)-N-C(3)-(aMe-P)-F -D-D-Lys(DOTA)-CONH2] (Ac-[dA]SDC[1Nal][tBuAla][Ala(piperidin-4-yl)][2Nal]NC[αMeP]FD[dK](DOTA)-NH2; disulfide 4-10) was 0.29 nM; that for `CC(=O)N[C@H](C(=O)N[C@@H](CO)C(=O)N[C@@H](CC(=O)O)C(=O)N[C@H]1CSSC[C@@H](C(=O)N2CCC[C@@]2(C)C(=O)N[C@@H](Cc2ccccc2)C(=O)N[C@@H](CC(=O)O)C(=O)N[C@H](CCCCNC(=O)CN2CCN(CC(=O)O)CCN(CC(=O)O)CCN(CC(=O)O)CC2)C(N)=O)NC(=O)[C@H](CC(N)=O)NC(=O)[C@H](Cc2ccc3ccccc3c2)NC(=O)[C@H](CCC(N)=O)NC(=O)[C@H](CC(C)(C)C)NC(=O)[C@H](Cc2cccc3ccccc23)NC1=O)C1CCCCC1` [compound 148, Ac-(Chg)-S-D-C(3)-(1Nal)-(t-Bu-Ala)-Q-(2Nal)-N-C(3)-(aMe-P)-F -D-D-Lys(DOTA)-CONH2] (Ac-[Chg]SDC[1Nal][tBuAla]Q[2Nal]NC[αMeP]FD[dK](DOTA)-NH2; disulfide 4-10) was 0.29 nM; that for `CC(=O)N[C@H](C)C(=O)N[C@@H](CO)C(=O)N[C@@H](CC(=O)O)C(=O)N[C@H]1CSSC[C@@H](C(=O)N2CCC[C@@]2(C)C(=O)N[C@@H](Cc2ccccc2)C(=O)N(C)[C@@H](CC(=O)O)C(=O)N[C@H](CCCCNC(=O)CN2CCN(CC(=O)O)CCN(CC(=O)O)CCN(CC(=O)O)CC2)C(=O)O)NC(=O)[C@H](CC(N)=O)NC(=O)[C@H](Cc2ccc3ccccc3c2)NC(=O)[C@H](CCC(N)=O)NC(=O)[C@H](CC(C)(C)C)NC(=O)[C@H](Cc2cccc3ccccc23)NC1=O` [compound 149, Ac-(D-Ala)-S-D-C(3)-(1Nal)-(t-Bu-Ala)-Q-(2Nal)-N-C(3)-(aMe-P)-F-(NMe-D)-D-Lys(DOTA)-CONH2] (Ac-[dA]SDC[1Nal][tBuAla]Q[2Nal]NC[αMeP]F[NMeD][dK](DOTA)-OH; disulfide 4-10) was greater than 30 nM.
The same measure, in the same setting: to `CC(=O)N[C@H](C)C(=O)N[C@@H](CO)C(=O)N[C@@H](CC(=O)O)C(=O)N[C@H]1CSSC[C@@H](C(=O)N2CCC[C@@]2(C)C(=O)N[C@@H](Cc2ccccc2C)C(=O)N[C@@H](CC(=O)O)C(N)=O)NC(=O)[C@H](CC(N)=O)NC(=O)[C@H](Cc2ccc3ccccc3c2)NC(=O)[C@H](CCCCNC(=O)CCC(NC(=O)CN2CCN(CC(=O)O)CCN(CC(=O)O)CCN(CC(=O)O)CC2)C(=O)O)NC(=O)[C@H](CC(C)(C)C)NC(=O)[C@H](Cc2cccc3ccccc23)NC1=O` (stereo partly drawn) [compound 152, Ac-(D-Ala)-S-D-C(3)-(1Nal)-(t-Bu-Ala)-[L-Lys(yE-DOTA)]-(2Nal)-N-C(3)-(aMe-P)-(2Me-F)-D-CONH2] (Ac-[dA]SDC[1Nal][tBuAla]K([ξγGlu-DOTA])[2Nal]NC[αMeP][Phe(2-Me)]D-NH2; disulfide 4-10) belongs 0.51 nM; to `Cc1ccccc1C[C@H](NC(=O)[C@]1(C)CCCN1C(=O)[C@@H]1CSSC[C@H](NC(=O)[C@H](CC(=O)O)NC(=O)[C@H](CO)NC(=O)CCCCCNC(=O)CN2CCN(CC(=O)O)CCN(CC(=O)O)CCN(CC(=O)O)CC2)C(=O)N[C@@H](Cc2cccc3ccccc23)C(=O)N[C@@H](CC(C)(C)C)C(=O)N[C@@H](CCC(N)=O)C(=O)N[C@@H](Cc2ccc3ccccc3c2)C(=O)N[C@@H](CC(N)=O)C(=O)N1)C(=O)N[C@@H](CC(=O)O)C(N)=O` [compound 155, DOTA-Ahx-S-D-C(3)-(1Nal)-(t-Bu-Ala)-Q-(2Nal)-N-C(3)-(aMe-P)-(2Me-F)-D-CONH2] ({DOTA-Ahx}-SDC[1Nal][tBuAla]Q[2Nal]NC[αMeP][Phe(2-Me)]D-NH2; disulfide 3-9), 0.11 nM; to `CC(C)(C)C[C@@H]1NC(=O)[C@H](Cc2cccc3ccccc23)NC(=O)[C@@H](NC(=O)[C@H](CC(=O)O)NC(=O)[C@H](CO)NC(=O)CCCCCNC(=O)CN2CCN(CC(=O)O)CCN(CC(=O)O)CCN(CC(=O)O)CC2)CSSC[C@@H](C(=O)N2CCC[C@@]2(C)C(=O)N[C@@H](Cc2ccccc2)C(=O)N[C@@H](CC(=O)O)C(=O)O)NC(=O)[C@H](CC(N)=O)NC(=O)[C@H](Cc2ccc3ccccc3c2)NC(=O)[C@H](CCC(N)=O)NC1=O` [compound 156, DOTA-Ahx-S-D-C(3)-(1Nal)-(t-Bu-Ala)-Q-(2Nal)-N-C(3)-(aMe-P)-F -D-COOH] ({DOTA-Ahx}-SDC[1Nal][tBuAla]Q[2Nal]NC[αMeP]FD-OH; disulfide 3-9), 0.11 nM.
